Columns and labels:
[1] = Cardiotoxicity assessment (Bertazzoli Test), tumor-bearing mice; format: in vivo, female NSG mice; settings: for hearts with Severity 0 / hearts with Severity 0.5 / hearts with Severity 1.0: 2 i.p. doses; for hearts with Total Score 0 / hearts with Total Score 0.5 / hearts with Total Score 1.0: severity×extension
Experimental: Drug-mediated cardiotoxicity was assessed in both non-tumor-bearing female NSG mice administered three doses (i.p. every two weeks) of the MTD of doxorubicin, pivarubicin or the equivalent volume of solvent only and in hearts excised from tumor-bearing mice treated as described in Results section. Body weights were monitored every three days. Two weeks after final dose, mice were sacrificed, and hearts were excised immediately. Intact ventricular myocardia were fixed for a minimum of 24 h in 10% formalin phosphate buffered to pH 7.0 and then carefully sectioned into 2 to 3-mm thick slices before being dehydrated in graded ethanol and cleared in xylene prior to embedding in paraffin at 58° C. Sections (4-μm thick) were mounted on glass slides, deparaffinized in xylene, and stained in the routine fashion with Mayer's hematoxylin and eosin. Slide labels were blinded to evaluator. Myocardial lesions were evaluated by routine light microscopy and scored with regard to the severity and extent of damage:
Degree of severity (S)—0, no evidence of histological changes; 1, sarcoplasmic microvacuolization and/or inclusions (interstitial or cellular edema); 2, as in 1 plus sarcoplasmic macrovacuolization or atrophia, necrosis, fibrosis, endocardial lesions, and thrombi.
Degree of extension (E)—0, no lesions; 0.5, less than 10 single altered myocytes on the whole-heart section; 1, scattered single altered myocytes; 2, scattered small groups of altered myocytes; 3, spread small groups of altered myocytes; 4, confluent groups of altered myocytes; 5, most of cells damaged.
Total cardiotoxicity score/animal=S×E and mean total score (MTS) for each treatment group was MTS=(S×E)/number of animals.
Given the limitation of doxorubicin in the treatment of tumors due to irreversible cardiotoxicity due to the total cumulative dose of drug, it was next determined whether pivarubicin produced evidence of cardiotoxic damage at the total dose of drug administered to NSG mice that produced tumor growth inhibition. Histological evidence of ventricular damage in hearts of drug- or vehicle-treated NSG mice were assessed using the Bertazzoli Test, originally designed to assess doxorubicin-induced cardiomyocyte damage. Analyses were performed on hearts from two independent experiments: 1) hearts that were excised at dosing endpoint from tumor-bearing NSG mice receiving 2 i.p. doses of pivarubicin at 16.5 mg/kg, doxorubicin at 1.4 mg/kg then 1.6 mg/kg and an equivalent volume of vehicle alone and 2) non-tumor-bearing female NSG mice receiving 3 i.p. doses of pivarubicin at 16.5 mg/kg, doxorubicin at 1.4 mg/kg then 1.6 mg/kg×2 and an equivalent volume of vehicle alone at 2-week intervals.
Non-tumor-bearing female NSG mice at 9 weeks old were treated with either 16.5 mg/kg pivarubicin (PIV), 1.4 mg/kg (1×) and 1.6 mg/kg (2×) doxorubicin and equivalent volumes of vehicle i.p. at 2-week intervals. Tumor-bearing female NSG mouse treatment was as described for the “Cardiotoxicity Assessment method” method. At endpoint, hearts were excised and prepared for histological analysis as described above. Severity and severity×extension (total score) are defined in Materials and Methods.

[2] = test system: HL-60 cells transfected with Bcr-Abl; assay: Cytotoxicity in Bcr-Abl transfected HL-60 cells; format: cell-based, human
Experimental: (§1) For the results shown in FIG. 5A, LNCaP cells transfected with Bcl-2 expression vector were assessed for doxorubicin or pivarubicin cytotoxicity, compared to cells transfected with empty vectors. Cells were exposed to 5 μM drug for 1 h, washed, and further incubated for 72 h in drug-free medium. Viability was determined by the MTT assay. For the results shown in FIG. 5B, pivarubicin cytotoxicity in HL-60 cells transfected with Bcr-Abl or Bcl-XL expression vectors were assessed for doxorubicin or pivarubicin cytotoxicity and compared as described for FIG. 5A.

[3] = test system: human LNCaP prostate cancer cells; assay: Pivarubicin cytotoxicity after PKCd siRNA transfection; format: cell-based; settings: PKCd-siRNA-transfected cells
[4] = test system: 293 embryonic human kidney cells; assay: Drug biotransformation analysis (HPLC of intracellular drug) in 293 cells; format: in vitro ADME
Source text: (§2) Intracellular drug was extracted and analyzed by fluorescence HPLC as described previously.

[5] = test system: J774.2 murine macrophage-like cells; assay: Drug biotransformation analysis (HPLC of intracellular drug) in J774.2 cells; format: in vitro ADME
Source text: as §2

[6] = test system: 32D.3, J774.2 and 293 cells; assay: Biotransformation to AD 288 after uptake into cells; format: in vitro ADME; settings: initial (1 hour), 1 μM
Source text: as §2

[7] = test system: HL-60 human promyelocytic leukemia cells transfected with Bcl-XL; assay: Cytotoxicity in Bcl-XL transfected HL-60 cells; format: cell-based; settings: 5 μM for 1 h, 72 h drug-free
Experimental: as §1

[8] = test system: LNCaP human prostate cancer cells transfected with Bcl-2; assay: MTT cytotoxicity in Bcl-2 transfected LNCaP cells; format: cell-based; settings: 5 μM for 1 h, 72 h drug-free
Experimental: as §1

32D.3 cells = assay: Analysis of apoptosis (cytochrome c release immunoblot, TUNEL); format: cell-based, murine; settings: 5 μM for 1 hour
Experimental: Detection of DNA fragmentation in apoptotic cells by the TUNEL assay and immunoblot analyses of cytochrome c release were performed as described previously.
Once distributed into microsomal membranes, pivarubicin triggered rapid, mitochondrial-dependent apoptosis that was independent of cell cycle arrest. Marked release of cytochrome c into the cytosol as an indicator of mitochondrial depolarization and dysfunction is detected within 5 hours of drug treatment, while DNA fragmentation, as detected by TUNEL staining, is abundant by 6 hours.
In a study of Cytochrome c (Cyt C) release by pivarubicin (PIV) and control (C), 32D.3 cells were exposed to 5 μM pivarubicin for 1 hour, then incubated in drug-free medium for an additional 4 hours. Cells were then fractionated to isolate the cytosolic fraction, subjected to immunoblotting and treated with anti-cytochrome c monoclonal antibody (1:250) for 2 hours, followed by a 1-hour treatment with 1:1000 dilution of horseradish peroxidase-conjugated goat anti-mouse second antibody as described previously. Proteins were detected by chemiluminescence (FIG. 3A). […] Individual fields of cells were detected for both DNA 3′-end labeling (green: grayscale image in FIG. 3D) or total cellular DNA staining by propidium iodide (red: grayscale images in FIGS. 3C and 3E). […]

PKCd = molecular target: T1, PKCd (Mus musculus, UniProt P28867); assay: PKCd translocation (cell fractionation, immunoblot); format: cell-based, murine; settings: within 4 hours of treatment with 5 μM; 32D.3 cells
T1 construct: endogenous in cells; host or cells: 32D.3 murine myeloid cells
T1 sequence (P28867 whole entry): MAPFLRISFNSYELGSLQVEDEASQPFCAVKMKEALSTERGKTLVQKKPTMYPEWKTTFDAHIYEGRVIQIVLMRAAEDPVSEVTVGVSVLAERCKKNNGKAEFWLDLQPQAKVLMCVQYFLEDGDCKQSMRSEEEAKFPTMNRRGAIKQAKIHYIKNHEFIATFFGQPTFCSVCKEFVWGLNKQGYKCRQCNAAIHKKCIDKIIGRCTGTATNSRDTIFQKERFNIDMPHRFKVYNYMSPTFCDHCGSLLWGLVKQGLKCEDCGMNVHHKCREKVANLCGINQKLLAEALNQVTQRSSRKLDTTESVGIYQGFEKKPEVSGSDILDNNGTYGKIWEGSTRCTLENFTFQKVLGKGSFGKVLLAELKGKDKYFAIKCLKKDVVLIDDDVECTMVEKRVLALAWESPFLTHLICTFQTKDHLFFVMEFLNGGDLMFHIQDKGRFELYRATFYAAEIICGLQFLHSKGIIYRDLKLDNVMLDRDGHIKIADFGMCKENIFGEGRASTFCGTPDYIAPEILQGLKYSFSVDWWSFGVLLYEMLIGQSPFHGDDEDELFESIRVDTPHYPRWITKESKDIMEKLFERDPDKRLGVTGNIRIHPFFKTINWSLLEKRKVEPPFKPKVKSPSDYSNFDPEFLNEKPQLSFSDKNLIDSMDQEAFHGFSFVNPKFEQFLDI
Source text: Inhibition of PKCd activity also selectively impedes pivarubicin cytotoxicity.

[9] = test system: 32D.3 murine myeloid cells; assay: Drug biotransformation analysis (HPLC of intracellular drug) in 32D.3 cells; format: in vitro ADME
Source text: as §2

SMILES	hearts with Severity 0 [1]	hearts with Severity 0.5 [1]	hearts with Severity 1.0 [1]	hearts with Total Score 0 [1]	hearts with Total Score 0.5 [1]	hearts with Total Score 1.0 [1]	effect of Bcr-Abl on cytotoxicity [2]	increase in concentration required to achieve 50% cell kill [3]	% Parent Compound ([4]; 293, 1 hr, 1 μM drug, 37° C.)	% Parent Compound ([4]; 293, 8 hr (1 hr drug + 7 hours drug-free medium))	% Parent Compound ([5]; J774.2, 1 hr, 1 μM drug, 37° C.)	% Parent Compound ([5]; J774.2, 8 hr (1 hr drug + 7 hours drug-free medium))	drug initially biotransformed [6]	effect of Bcl-XL overexpression on rate of drug-induced apoptosis [7]	effect of Bcl-2 overexpression on rate of drug-induced apoptosis [8]	time to marked release of cytochrome c into the cytosol (32D.3 cells; then drug-free medium)	DNA fragmentation detected by TUNEL staining (32D.3 cells; by 6 hours)	PKCd translocation (PKCd)	% Parent Compound ([9]; 32D.3, 1 hr, 1 μM drug, 37° C.)	% Parent Compound ([9]; 32D.3, 8 hr (1 hr drug + 7 hours drug-free medium))
COc1cccc2c1C(=O)c1c(O)c3c(c(O)c1C2=O)C[C@@](O)(C(=O)CO)C[C@@H]3O[C@H]1C[C@H](N)[C@H](O)[C@H](C)O1 [Doxorubicin, reference compound]	7/9	0/9	2/9	8/9	1/9	0/9	–	–	–	–	–	–	–	–	–	–	–	–	–	–
COc1cccc2c1C(=O)c1c(O)c3c(c(O)c1C2=O)C[C@@](O)(C(=O)COC(=O)C(C)(C)C)C[C@@H]3O[C@H]1C[C@H](NCc2ccccc2)[C@H](O)[C@H](C)O1 [Pivarubicin, N-Benzyladriamycin-14-pivalate]	9/10	0/10	1/10	9/10	0/10	1/10	no inhibitory effect	2.5 fold	98%	94%	90%	90%	less than 10%	do not impede	do not impede	≤ 5 h	abundant	translocates from the cytosolic to the membrane fraction	100%	96%

— patent publication US11666589B2, “Pivarubicin and benzarubicin compositions” (Paradox Pharmaceuticals, Inc., priority 2020, dated 2023)
